Results published in ChEMBL document CHEMBL6074680, “Structure-Based Discovery of a Series of Covalent, Orally Bioavailable, and Selective BFL1 Inhibitors” (J Med Chem, 2024).
The source made the active and inactive calls. The rule behind the calls is not given here.

What was measured:
[1] = Half life in CD-1 mouse at 1 mg/kg, po or 0.5 mg/kg, iv measured upto 24 hrs by LC-MS/MS analysis; type: ADME, organism-based; details: in vivo
[2] = AUC in CD-1 mouse at 1 mg/kg, po or 0.5 mg/kg, iv measured upto 24 hrs by LC-MS/MS analysis; type: ADME, organism-based; details: in vivo
[3] = Apparent permeability across apical to basolateral side in human Caco-2 cells measured upto 120 mins by LC-MS/MS analysis; type: ADME, cell-based
[4] = molecular target: Bcl-2-like protein 1 (Homo sapiens, UniProt Q07817); test: Inhibition of Bcl-Xl (unknown origin) by FRET assay
Sequence of Bcl-2-like protein 1 (Q07817 whole entry): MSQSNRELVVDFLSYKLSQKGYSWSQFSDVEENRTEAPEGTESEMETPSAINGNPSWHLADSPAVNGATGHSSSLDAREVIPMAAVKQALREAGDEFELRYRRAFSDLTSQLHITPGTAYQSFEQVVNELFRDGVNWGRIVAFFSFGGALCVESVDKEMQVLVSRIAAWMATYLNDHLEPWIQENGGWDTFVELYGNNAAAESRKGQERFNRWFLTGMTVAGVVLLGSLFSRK

[5] = Metabolic stability in human hepatocytes assessed as intrinsic clearance measured per 10^6 cells; type: ADME, cell-based, Hepatocyte; details: read-out: CLH
[6] = Metabolic stability in rat hepatocytes assessed as intrinsic clearance measured per 10^6 cells; type: ADME, cell-based, Hepatocyte; details: rat hepatocytes, read-out: CLH
[7] = Volume of distribution at steady state in CD-1 mouse at 1 mg/kg, po or 0.5 mg/kg, iv measured upto 24 hrs by LC-MS/MS analysis; type: ADME, organism-based; details: in vivo
[8] = system: SU-DHL-1; test: Antiproliferative activity against human SU-DHL-1 cells assessed as cell viability incubated for 24 hrs by celltiter-glo assay; type: functional, cell-based; details: SU-DHL-1, 24 h
[9] = Cmax in CD-1 mouse at 1 mg/kg, po or 0.5 mg/kg, iv measured upto 24 hrs by LC-MS/MS analysis; type: ADME, organism-based; details: in vivo
[10] = molecular target: T1, BCL2A1/BID (Homo sapiens, UniProt Q16548); test: Inhibition of BFL-1/ BH3 (unknown origin) interaction incubated for 2 hrs by TR-FRET assay; type: protein assay
T1 sequence (Q16548 whole entry): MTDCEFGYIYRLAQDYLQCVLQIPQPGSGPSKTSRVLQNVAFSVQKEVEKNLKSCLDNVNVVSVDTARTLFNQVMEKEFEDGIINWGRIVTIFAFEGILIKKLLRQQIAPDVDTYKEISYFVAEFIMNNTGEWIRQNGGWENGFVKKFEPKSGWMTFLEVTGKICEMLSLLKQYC
T1 sequence (P55957 whole entry): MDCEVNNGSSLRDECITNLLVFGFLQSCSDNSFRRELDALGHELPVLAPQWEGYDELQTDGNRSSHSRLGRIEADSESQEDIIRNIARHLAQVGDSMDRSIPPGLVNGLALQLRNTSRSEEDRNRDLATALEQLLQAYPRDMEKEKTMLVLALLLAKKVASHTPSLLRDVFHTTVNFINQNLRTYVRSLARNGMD

[11] = Plasma protein binding in mouse assessed as unbound fraction; type: ADME, cell-free
[12] = Oral bioavailability in CD-1 mouse at 1 mg/kg or 0.5 mg/kg measured upto 24 hrs by LC-MS/MS analysis; type: ADME, organism-based; details: in vivo
[13] = system: SU-DHL-1; test: Induction of apoptosis in human SU-DHL-1 cells assessed as caspase activation in presence of AZD5991 incubated for 6 hrs by caspaseGlo 3/7 reagent based assay; type: functional, cell-based; details: SU-DHL-1, 6 h
[14] = Lipophilicity, log D of compound in 1-octanol at pH 7.4 incubated for 4 hrs by HPLC-UV analysis; type: physicochemical; details: 1-octanol / aqueous phase at pH 7.4, pH 7.4
[15] = molecular target: Apoptosis regulator Bcl-2 (Homo sapiens, UniProt P10415); test: Inhibition of BCL2 (unknown origin) by FRET assay
Sequence of Apoptosis regulator Bcl-2 (P10415 whole entry): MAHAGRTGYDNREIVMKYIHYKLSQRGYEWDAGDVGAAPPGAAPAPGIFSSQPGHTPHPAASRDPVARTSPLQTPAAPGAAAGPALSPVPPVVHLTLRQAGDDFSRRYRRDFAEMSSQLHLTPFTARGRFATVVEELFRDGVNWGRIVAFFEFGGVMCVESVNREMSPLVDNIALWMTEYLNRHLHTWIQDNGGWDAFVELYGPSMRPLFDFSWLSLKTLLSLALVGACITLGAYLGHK

[16] = Metabolic stability in mouse hepatocytes assessed as intrinsic clearance measured per 10^6 cells; type: ADME, cell-based, Hepatocyte; details: read-out: CLH
[17] = system: Mus musculus; test: Effect on BFL1 level in po dosed SCID mouse measured for 6 hrs by MSD assay; type: functional, organism-based; details: dose 100-300 mg/kg
[18] = molecular target: Cannabinoid receptor 1 (Homo sapiens, UniProt P21554); test: Inhibition of human CB1 receptor
Sequence of Cannabinoid receptor 1 (P21554 whole entry): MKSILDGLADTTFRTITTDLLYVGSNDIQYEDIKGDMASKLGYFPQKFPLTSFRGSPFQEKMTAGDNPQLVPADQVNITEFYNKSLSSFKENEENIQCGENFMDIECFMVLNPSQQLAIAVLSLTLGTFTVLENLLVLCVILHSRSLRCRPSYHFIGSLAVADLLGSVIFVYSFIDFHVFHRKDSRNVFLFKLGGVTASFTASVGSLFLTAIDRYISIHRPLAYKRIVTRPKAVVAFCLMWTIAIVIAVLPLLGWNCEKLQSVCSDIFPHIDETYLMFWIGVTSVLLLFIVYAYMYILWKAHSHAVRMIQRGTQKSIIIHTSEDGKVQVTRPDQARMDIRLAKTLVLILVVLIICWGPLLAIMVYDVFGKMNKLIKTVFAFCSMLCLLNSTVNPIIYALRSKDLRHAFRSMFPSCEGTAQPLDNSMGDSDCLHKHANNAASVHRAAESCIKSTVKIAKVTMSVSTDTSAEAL

[19] = system: SU-DHL-1; test: Antiproliferative activity against human SU-DHL-1 cells assessed as cell survival upto 100 uM incubated for 24 hrs by celltiter-glo assay; type: functional, cell-based
[20] = system: OCI-Ly10; test: Induction of apoptosis in human OCI-Ly10 cells assessed as caspase activation incubated for 6 hrs by caspaseGlo 3/7 reagent based assay; type: functional, cell-based
[21] = system: Mus musculus; test: Effect on cleaved caspase 3 level in po dosed SCID mouse measured for 6 hrs by MSD assay; type: functional, organism-based; details: dose 100-300 mg/kg
[22] = system: KARPAS-422; test: Antiproliferative activity against human KARPAS-422 cells assessed as cell survival at 10 uM incubated for 24 hrs by celltiter-glo assay; type: functional, cell-based
[23] = system: KARPAS-422; test: Antiproliferative activity against BFL1 null human KARPAS-422 cells assessed as cell viability incubated for 24 hrs by celltiter-glo assay; type: functional, cell-based
[24] = molecular target: Induced myeloid leukemia cell differentiation protein Mcl-1 (Homo sapiens, UniProt Q07820); test: Inhibition of MCL1 (unknown origin) by FRET assay
Sequence of Induced myeloid leukemia cell differentiation protein Mcl-1 (Q07820 whole entry): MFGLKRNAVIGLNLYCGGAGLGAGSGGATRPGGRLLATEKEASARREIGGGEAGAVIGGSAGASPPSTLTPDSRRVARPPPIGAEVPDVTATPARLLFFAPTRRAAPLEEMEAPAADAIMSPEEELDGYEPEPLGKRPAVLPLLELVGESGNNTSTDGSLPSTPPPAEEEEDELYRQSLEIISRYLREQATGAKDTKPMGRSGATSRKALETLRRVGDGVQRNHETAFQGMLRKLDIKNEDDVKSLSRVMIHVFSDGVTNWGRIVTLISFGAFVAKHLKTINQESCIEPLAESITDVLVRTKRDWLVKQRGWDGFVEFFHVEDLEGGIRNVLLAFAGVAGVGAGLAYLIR

C=CC(=O)N(c1ccc(O[C@@H]2CC[C@@H](NC(=O)N[C@@H]3CCS(=O)(=O)C3)C2)c(Cl)c1)[C@@H](C)c1ccc(Cl)cc1
half-life [1]: 0.75 h | AUC at 24 h [2]: 0.036 µM·h | Papp A→B at 2 h [3]: 16 ×10⁻⁶ cm/s | IC50 [4]: > 30 µM | hepatocyte CLint [5]: 11 µL/min/1e6 cells | hepatocyte CLint [6]: 55 µL/min/1e6 cells | Vdss [7]: 4.1 L/kg | EC50 [8]: 0.048 µM | Cmax [9]: 15 nM | IC50 [10]: 0.0054 µM | fraction unbound [11]: 0.013 | bioavailability [12]: 16% | EC50 [13]: 0.038 µM | logD at 4 h [14]: 4.2 | IC50 [15]: > 30 µM | hepatocyte CLint [16]: 42 µL/min/1e6 cells

C=CC(=O)N(c1ccc(O[C@@H]2CC[C@@H](N)C2)c(F)c1)[C@@H](C)c1ccc(Cl)cc1
Activity [17]: Dose-dependent-effect | IC50 [18]: > 100 µM | EC50 [8]: 0.25 µM | Activity [19]: Active | Activity [20]: Active | Activity [21]: Dose-dependent-effect | Activity [22]: inactive | Activity [23]: Active | EC50 [13]: 0.35 µM | IC50 [24]: > 100 µM

C=CC(=O)N(c1ccc(O[C@@H]2CC[C@@H](NC(=O)N[C@@H]3CCS(=O)(=O)C3)C2)c(F)c1)[C@@H](C)c1ccc(Cl)cc1
half-life [1]: 3.1 h | AUC at 24 h [2]: 0.19 µM·h | Papp A→B at 2 h [3]: < 11 ×10⁻⁶ cm/s | IC50 [4]: > 30 µM | hepatocyte CLint [5]: 7.4 µL/min/1e6 cells | hepatocyte CLint [6]: 59 µL/min/1e6 cells | Vdss [7]: 4 L/kg | EC50 [8]: 0.19 µM | Cmax [9]: 53 nM | IC50 [10]: 0.0085 µM | fraction unbound [11]: 0.027 | bioavailability [12]: 37% | EC50 [13]: 0.083 µM | logD at 4 h [14]: 3.7 | IC50 [15]: > 30 µM | hepatocyte CLint [16]: 69 µL/min/1e6 cells
